Laboratory results taken from patent US4547503A, “1-Cyclopropyl-6-fluoro-1,4-dihydro-4-oxo-7-[4-(oxo-alkyl)-1-piperazinyl ]quinoline-3-carboxylic acids and their derivatives, and antibacterial agents containing them” (Bayer Aktiengesellschaft, priority 1982, dated 1985).
≈ marks a conversion by molar mass, not a printed value.

How the values were obtained:
Assay in all cases: MIC, agar dilution test; Denley multipoint inoculation procedure
Assay type in all cases: cell-based
Klebsiella 6179 = conditions: read-out: Minimum inhibitory concentration
Excerpt: (§1) In the table below, the minimum inhibitory concentrations (MIC) with a variety of bacteria for some of the compounds according to the invention are given. |Minimum inhibitory concentrations in mcg/ml in the agar dilution test;

Klebsiella 57 USA = conditions: read-out: Minimum inhibitory concentration
Excerpt: as §1

Klebsiella 8085 = conditions: read-out: Minimum inhibitory concentration
Excerpt: as §1

Staphylococcus 133 = conditions: read-out: Minimum inhibitory concentration
Excerpt: as §1

E. coli A 261 = conditions: Escherichia coli, A261, read-out: Minimum inhibitory concentration
Excerpt: as §1

E. coli Neumann = conditions: Escherichia coli, read-out: Minimum inhibitory concentration
Excerpt: as §1

Staphylococcus 1746 = conditions: read-out: Minimum inhibitory concentration
Excerpt: as §1

Staphylococcus Fk 422 = conditions: FK422, read-out: Minimum inhibitory concentration
Excerpt: as §1

Providencia 12052 = conditions: read-out: Minimum inhibitory concentration
Excerpt: as §1

Proteus morganii 932 = conditions: Morganella morganii, read-out: Minimum inhibitory concentration
Excerpt: as §1

SMILES | MIC (Klebsiella 6179) | MIC (Klebsiella 57 USA) | MIC (Klebsiella 8085) | MIC (Staphylococcus 133) | MIC (E. coli A 261) | MIC (E. coli Neumann) | MIC (Staphylococcus 1746) | MIC (Staphylococcus Fk 422) | MIC (Providencia 12052) | MIC (Proteus morganii 932)
O=C(CN1CCN(c2cc3c(cc2F)c(=O)c(C(=O)O)cn3C2CC2)CC1)c1ccccc1 [Example 4] | 0.5 µg/mL (≈ 1.11 µM) | 0.06 µg/mL (≈ 0.133 µM) | 0.125 µg/mL (≈ 0.278 µM) | 2 µg/mL (≈ 4.45 µM) | ≤ 0.015 µg/mL | 0.03 µg/mL (≈ 0.0667 µM) | 1 µg/mL (≈ 2.22 µM) | 2 µg/mL (≈ 4.45 µM) | 128 µg/mL (≈ 285 µM) | ≤ 0.015 µg/mL
O=C(CN1CCN(c2cc3c(cc2F)c(=O)c(C(=O)O)cn3C2CC2)CC1)c1ccc(Cl)cc1 [Example 9] | 1 µg/mL (≈ 2.07 µM) | 0.5 µg/mL (≈ 1.03 µM) | 0.125 µg/mL (≈ 0.258 µM) | 2 µg/mL (≈ 4.13 µM) | ≤ 0.015 µg/mL | 0.03 µg/mL (≈ 0.062 µM) | 2 µg/mL (≈ 4.13 µM) | 2 µg/mL (≈ 4.13 µM) | > 128 µg/mL | 0.03 µg/mL (≈ 0.062 µM)
O=C(CN1CCN(c2cc3c(cc2F)c(=O)c(C(=O)O)cn3C2CC2)CC1)c1ccc(O)cc1O [Example 5] |  |  |  | 0.25 µg/mL (≈ 0.519 µM) |  |  | 0.25 µg/mL (≈ 0.519 µM) | 0.25 µg/mL (≈ 0.519 µM) |  | 

Results, then the molecule that gave them:

MIC (Klebsiella 6179) | MIC (Klebsiella 57 USA) | MIC (Klebsiella 8085) | MIC (Staphylococcus 133) | MIC (E. coli A 261) | MIC (E. coli Neumann) | MIC (Staphylococcus 1746) | MIC (Staphylococcus Fk 422) | MIC (Providencia 12052) | MIC (Proteus morganii 932) | SMILES
2 µg/mL (≈ 5.16 µM) | 1 µg/mL (≈ 2.58 µM) | 0.06 µg/mL (≈ 0.155 µM) | 0.25 µg/mL (≈ 0.645 µM) | ≤ 0.015 µg/mL | 0.06 µg/mL (≈ 0.155 µM) | 0.25 µg/mL (≈ 0.645 µM) | 0.25 µg/mL (≈ 0.645 µM) | 128 µg/mL (≈ 330 µM) | 0.06 µg/mL (≈ 0.155 µM) | CC(=O)CN1CCN(c2cc3c(cc2F)c(=O)c(C(=O)O)cn3C2CC2)CC1 [Example 1, 1-cyclopropyl-6-fluoro-1,4-dihydro-4-oxo-7-[4-(2-oxopropyl)-1-piperazinyl]quinoline-3-carboxylic acid]
0.25 µg/mL (≈ 0.535 µM) | 0.03 µg/mL (≈ 0.0642 µM) | 0.03 µg/mL (≈ 0.0642 µM) | 1 µg/mL (≈ 2.14 µM) | ≤ 0.015 µg/mL | 0.015 µg/mL (≈ 0.0321 µM) | 1 µg/mL (≈ 2.14 µM) | 1 µg/mL (≈ 2.14 µM) | 64 µg/mL (≈ 137 µM) | ≤ 0.015 µg/mL | O=C(CN1CCN(c2cc3c(cc2F)c(=O)c(C(=O)O)cn3C2CC2)CC1)c1ccc(F)cc1 [Example 8]
0.25 µg/mL (≈ 0.623 µM) | 0.06 µg/mL (≈ 0.149 µM) | ≤ 0.015 µg/mL | 0.5 µg/mL (≈ 1.25 µM) | ≤ 0.015 µg/mL | ≤ 0.015 µg/mL | 0.5 µg/mL (≈ 1.25 µM) | 0.5 µg/mL (≈ 1.25 µM) | 32 µg/mL (≈ 79.7 µM) | ≤ 0.015 µg/mL | CC(=O)CCN1CCN(c2cc3c(cc2F)c(=O)c(C(=O)O)cn3C2CC2)CC1 [Example 12, 1-cyclopropyl-6-fluoro-1,4-dihydro-4-oxo-7-[4-(3-oxobutyl)-1-piperazinyl]quinoline-3-carboxylic acid]
